≈ marks a conversion by molar mass, not a printed value.
Tests used:
Klebsiella pneumoniae = assay: MIC vs enteric organisms: Klebsiella pneumoniae; type: cell-based; conditions: K. pneu., MIC key class
Procedure: (§1) Bacterial isolates were cultivated from −70° C. frozen stocks by two consecutive overnight passages at 35° C. in ambient air on 5% blood agar (Remel, Lenexa, Kans.). Clinical isolates tested were from a collection composed of isolates collected during clinical trials and recent clinical isolates obtained from various geographically diverse hospitals in the US. Quality control and primary panel strains were from the American Type Culture Collection (ATCC; Rockville, Md.), with the exception of P. aeruginosa PAO200, a strain with a deletion of the mexABoprM genes that was received from Dr. H. Schweizer.
(§2) Minimum Inhibitory Concentrations (MICs) were determined by the broth microdilution method in accordance with the National Committee for Clinical Laboratory Standards (NCCLS) guidelines. In brief, organism suspensions were are adjusted to a 0.5 McFarland standard to yield a final inoculum between 3×10^5 and 7×10^5 colony-forming units (CFU)/mL. Drug dilutions and inocula were made in sterile, cation adjusted Mueller-Hinton Broth (Remel). An inoculum volume of 100 μl was added to wells containing 100 μl of broth with 2-fold serial dilutions of drug. All inoculated microdilution trays were incubated in ambient air at 35° C. for 18-24 hours. Following incubation, the lowest concentration of the drug that prevented visible growth was recorded as the MIC.

[1] = test system: Pseudomonas aeruginosa cystic fibrosis isolate 3317; assay: MIC vs cystic fibrosis isolate of P. aeruginosa 3317 (resistant to aztreonam); type: cell-based; conditions: strain 3317, Aztr. R, LpxC inhibitors, MIC key class
Procedure: as §1, §2

[2] = test system: Pseudomonas aeruginosa cystic fibrosis isolate 3224; assay: MIC vs cystic fibrosis isolate of P. aeruginosa 3224; type: cell-based; conditions: strain 3224, Tobra R, LpxC inhibitors, MIC key class
Procedure: as §1, §2

[3] = test system: Pseudomonas aeruginosa cystic fibrosis isolate 1145; assay: microbe, parasite or virus in culture; type: cell-based; conditions: strain 1145, MDR, LpxC inhibitors, MIC key class, read-out: MIC
Procedure: as §1, §2

[4] = test system: Pseudomonas aeruginosa cystic fibrosis isolate 3206; assay: microbe, parasite or virus in culture; type: cell-based; conditions: strain 3206, MDR, LpxC inhibitors, MIC key class, read-out: MIC
Procedure: as §1, §2

Klebsiella oxytoca = assay: MIC vs enteric organisms: Klebsiella oxytoca; type: cell-based; conditions: K. oxy., MIC key class
Procedure: as §1, §2

E. coli 25922 = assay: MIC broth microdilution, standard panel: E. coli 25922; type: cell-based; conditions: Escherichia coli, standard panel of organisms
How it was run: (§3)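 MIC read as the lowest drug concentration giving no visible growth after 18-24 hours at 35° C. in ambient air. Testing followed NCCLS broth microdilution in cation-adjusted Mueller-Hinton broth, final inoculum 3×10^5–7×10^5 CFU/mL; tobramycin quality-control strains monitored performance.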

P. aeruginosa LpxC = biological target: T1, P. aeruginosa LpxC (Pseudomonas aeruginosa, UniProt P47205); assay: P. aeruginosa LpxC Inhibition Assay; type: biochemical; conditions: 2 nM P. aeruginosa LpxC, 90 min, room temperature; read-out: IC50 (nM), Enzyme inhibitory activity
T1 sequence (P47205 1-303): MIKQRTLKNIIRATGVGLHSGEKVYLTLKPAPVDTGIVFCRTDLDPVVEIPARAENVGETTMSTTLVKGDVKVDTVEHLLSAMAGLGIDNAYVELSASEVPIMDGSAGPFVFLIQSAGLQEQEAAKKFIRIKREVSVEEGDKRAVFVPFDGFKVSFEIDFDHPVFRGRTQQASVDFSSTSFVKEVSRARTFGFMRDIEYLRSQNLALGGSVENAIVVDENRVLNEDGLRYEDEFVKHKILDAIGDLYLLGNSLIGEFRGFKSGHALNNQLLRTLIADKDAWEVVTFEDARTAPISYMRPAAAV
Procedure: The assay followed the general method of Hyland et al (Journal of Bacteriology 1997 179, 2029-2037: Cloning, expression and purification of UDP-3-O-acyl-GlcNAc deacetylase from Pseudomonas aeruginosa: a metalloamidase of the lipid A biosynthesis pathway) and the radiolabeling procedure is according to Kline et al. supra. Briefly, samples were incubated with 2 nM P. aeruginosa LpxC and 150 nM [3H-Ac]-UDP-3-OR-3-hydroxydecanoyl)-GlcNAc in a total volume of 50 uL for 90 min at room temperature. Reactions were carried out in 96-well polypropylene plates in 50 mM sodium phosphate buffer, pH 7.5, containing 1 mg/mL BSA. Reactions were stopped by the addition of 180 uL of a 3% suspension of activated charcoal powder in 100 mM sodium acetate, pH 7.5. Supernatants were clarified by centrifugation. A portion of the clarified supernatant, containing the enzymatically released [3H]-acetate, was transferred to opaque white 96-well plates containing scintillation fluid. The radioactivity was measured in a Perkin-Elmer/Wallac Trilux Microbeta counter.

[5] = test system: P. aeruginosa PAO200 mexAB; assay: MIC broth microdilution, standard panel: P. aeruginosa PAO200 mexAB; type: cell-based; conditions: Pseudomonas aeruginosa, PAO200MEXAB, read-out: MIC P. aeruginosa PAO200 mexAB
How it was run: as §3

[6] = test system: Acinetobacter calcoaceticus; assay: MIC vs non-fermenting organisms: Acinetobacter calcoaceticus; type: cell-based; conditions: Acinet. calc., MIC key class
Procedure: as §1, §2

[7] = test system: Pseudomonas aeruginosa cystic fibrosis isolate 3236; assay: MIC vs cystic fibrosis isolate of P. aeruginosa 3236 (sensitive to most antibacterials); type: cell-based; conditions: strain 3236, Sensitive, LpxC inhibitors, MIC key class
Procedure: as §1, §2

Enterobacter cloacae = assay: MIC vs enteric organisms: Enterobacter cloacae; type: cell-based; conditions: E. clo., MIC key class
Procedure: as §1, §2

Serratia marcescens = assay: MIC vs enteric organisms: Serratia marcescens; type: cell-based; conditions: S. marc., MIC key class
Procedure: as §1, §2

[8] = test system: Pseudomonas aeruginosa cystic fibrosis isolate 2196; assay: MIC vs cystic fibrosis isolate of P. aeruginosa 2196 (resistant to ciprofloxacin); type: cell-based; conditions: strain 2196, Cipro R, LpxC inhibitors, MIC key class
Procedure: as §1, §2

C[C@@H](O)[C@H](NC(=O)c1ccc(C#CC#Cc2ccc(NC(=O)CNc3ccccn3)cc2)cc1)C(=O)NO [Example 801, N-{(1S,2R)-2-hydroxy-1-[(hydroxyamino)carbonyl]propyl}-4-[4-(4-{[(pyridin-2-ylamino)acetyl]amino}phenyl)buta-1,3-diynyl]benzamide]
MIC (Klebsiella pneumoniae): < 6.25 µg/mL | MIC [1]: < 6.25 µg/mL | MIC [2]: < 6.25 µg/mL | MIC [3]: < 6.25 µg/mL | MIC [4]: < 6.25 µg/mL | MIC (Klebsiella oxytoca): < 6.25 µg/mL | MIC (E. coli 25922): < 6.25 µg/mL | IC50 (P. aeruginosa LpxC): < 100 nM | MIC [5]: < 6.25 µg/mL | MIC [6]: 6.25 to 50 µg/mL (≈ 12.2 to 97.7 µM) | MIC [7]: < 6.25 µg/mL | MIC (Enterobacter cloacae): < 6.25 µg/mL | MIC (Serratia marcescens): < 6.25 µg/mL | MIC [8]: < 6.25 µg/mL
